Measured values as given in patent US11278526B2, “Compounds and methods for treating lupus” (RECEPTOS LLC, priority 2016, dated 2022).
Read-outs that look alike come from different tables or passages of the source.

Tests used:
NZBWF1 mice [1] = assay: Kidney weight at termination (42 weeks); type: in vivo
Description: In SLE, inflammatory infiltrates known as Tertiary Lymphatic Tissue (TLT) accumulate in the kidney and spleen, among other tissues. As an indirect measure of disease progression, right and left kidneys were weighed (FIGS. 4A-4B) following termination at 42 weeks.
As in Example 5, left kidneys were weighed (FIG. 43) following termination at 42 weeks.

[2] = NZBWF1 mice, cyclophosphamide IP once a week
Experimental: Compound 148 was tested for efficacy in an art-accepted mouse model for SLE: NZB×NZW F1 (“NZBWF1”) mice develop an autoimmune disease closely resembling SLE. These mice spontaneously produce high levels of anti-dsDNA antibodies, an indicator of SLE, starting after 20 weeks of age. These mice develop hemolytic anemia, proteinuria, and progressive glomerulonephritis mediated by immune complex deposition in the glomerular basement membrane.
Six groups of NZBWF1 mice (Jackson Laboratories, stock #100008) were used in the study and were acclimated to the research facility for 7 weeks prior to the start of the study. Weekly measurements of proteinuria (excess serum proteins present in the urine) and body weight began at 20 weeks of age. At 23 weeks of age, the mice were assigned to groups in a balanced manner in order to achieve average body weight and average proteinuria measurements across the groups. […]
The three groups dosed with compound 148 received 0.3, 1.0, and 3.0 mg/kg PO QD, respectively (20 mice per dosage). […] Disease development was evaluated as disclosed in the following examples. […]
The three groups dosed with compound 5 received 0.3, 1.0, and 3.0 mg/kg PO QD, respectively (20 mice per dosage). […] Disease development was evaluated as disclosed in the following examples.

NZBWF1 mice [3] = assay: Serum blood urea nitrogen (BUN) at termination; type: in vivo
Experimental: Lymphocyte counts were measured from whole blood taken at 23, 31, and 36.5 weeks using flow cytometry. Cells were gated for CD4+ T cells, CD8+ T cells, and CD19+ B cells. […] Serum blood urea nitrogen (BUN) was also measured at termination to assess kidney function.
As in Example 4, serum blood urea nitrogen (BUN) was measured at termination to assess kidney function.

NZBWF1 mice [4] = assay: Survival in NZBWF1 SLE mouse model; type: in vivo; conditions: cyclophosphamide 50 mg/kg IP once a week (compound 5 study), Logrank p=0.0017
Experimental: As in Example 2, compound 5 was tested for efficacy in the same NZB×NZW F1 (“NZBWF1”) mouse model for SLE as compound 148. Six groups of NZBWF1 mice (Jackson Laboratories, stock #100008) were used in the study and were acclimated to the research facility for 6 weeks prior to the start of the study. Weekly measurements of proteinuria (excess serum proteins present in the urine) and body weight began at 20 weeks of age. At 22 weeks of age, the mice were assigned to groups in a balanced manner in order to achieve average body weight and average proteinuria measurements across the groups. One “naive” group consisting of 10 mice was euthanized at the start of treatment and used as a source of tissue for analysis. Treatment began at 22 weeks of age.
The five treatment groups were administered cyclophosphamide (positive control, 20 mice; introduced gradually to reduce toxicity (IP, once a week, 10 mg/kg at Weeks 22 and 23 and 50 mg/kg from Week 24 to the end of the study)), vehicle (negative control, 20 mice), or compound 5 (three groups of 20 mice), beginning at 22 weeks of age and observed over the course of 20 weeks. The three groups dosed with compound 5 received 0.3, 1.0, and 3.0 mg/kg PO QD, respectively (20 mice per dosage). Surviving animals were sacrificed at 42 weeks. […] Disease development was evaluated as disclosed in the following examples.

NZBWF1 mice [5] = assay: Proteinuria scores (urine dip sticks) in NZBWF1 SLE mouse model; type: in vivo
Description: Six groups of NZBWF1 mice (Jackson Laboratories, stock #100008) were used in the study and were acclimated to the research facility for 7 weeks prior to the start of the study. Weekly measurements of proteinuria (excess serum proteins present in the urine) and body weight began at 20 weeks of age. At 23 weeks of age, the mice were assigned to groups in a balanced manner in order to achieve average body weight and average proteinuria measurements across the groups. One “naive” group consisting of 10 mice was euthanized at the start of treatment and used as a source of tissue for analysis. Treatment began at 23 weeks of age.
The three groups dosed with compound 148 received 0.3, 1.0, and 3.0 mg/kg PO QD, respectively (20 mice per dosage). Surviving animals were sacrificed at 42 weeks. […] Disease development was evaluated as disclosed in the following examples.
High levels of proteinuria are a strong indicator of SLE. […] Proteinuria was expressed as a score from 0 to 4 (0=no protein; 1=traces of protein (<30 mg/dL); 2=30-100 mg/dL; 3=100-500 mg/dL; 4=>500 mg/dL).
As in Example 3, proteinuria was measured weekly beginning at 20 weeks using urine dip sticks (Roche Diagnostics Chemstrip 2GP, cat. no. 11895397160, per manufacturer's protocol). Proteinuria was expressed as a score from 0 to 4 (0=no protein; 1=traces of protein (<30 mg/dL); 2=30-100 mg/dL; 3=100-500 mg/dL; 4=>500 mg/dL). […] (In this and the following experiments, the number of mice per group was approximately 20, and statistics were determined by one-way ANOVA with Dunnett's comparison.)

splenocytes = assay: Splenocyte counts and immunophenotyping of spleen cell subtypes; type: in vivo, mice; conditions: mouse, in vivo
Experimental: To determine the effects of compound 148 on inflammatory infiltrate in the spleen, spleens were weighed at 42 weeks. […] Splenocyte suspensions were then prepared. RBCs were lysed and splenocytes were counted.
Plasmacytoid dendritic cells (pDC) express IFNAR1 (Interferon alpha receptor 1), which amplifies the proinflammatory response to type 1 interferons (e.g., IFNα) that are associated with lupus. IFNAR activity is considered to be an important modulator of signal strength and duration in pDC and subsequent activation of T and B cells in the inflammatory response. pDC counts were measured at termination.
To determine the effects of compound 5 on inflammatory infiltrate in the spleen, spleens were weighed at 42 weeks. […] Splenocyte suspensions were prepared for all three doses. RBCs were lysed and splenocytes were counted.

[6] = cyclophosphamide 50 mg/kg IP once a week (compound 5 study)
[7] = cyclophosphamide 50 mg/kg IP once a week (compound 148 study), p<0.05

Compound: O=P1(N(CCCl)CCCl)NCCCO1 (stereo not shown) [cyclophosphamide, reference compound]
- Left kidney weight relative to vehicle (NZBWF1 mice [1]; [6]): significantly reduced kidney weight relative to vehicle
- Kidney weight relative to vehicle (NZBWF1 mice [1]; [7]): significantly reduced kidney weight relative to vehicle
- Body weight ([2]; 50 mg/kg from week 24 (compound 5 study)): increased body weights
- Body weight ([2]; 50 mg/kg from week 25 (compound 148 study)): increased body weights
- Serum BUN at termination vs vehicle (NZBWF1 mice [3]; [6]): significant reduction in serum BUN
- Serum BUN at termination vs vehicle (NZBWF1 mice [3]; [7]): significant reduction in serum BUN
- Survival compared to vehicle (NZBWF1 mice [4]): improved survival compared to vehicle treated animals
- Proteinuria scores relative to vehicle (NZBWF1 mice [5]; [6]): significant improvement relative to vehicle
- Proteinuria scores relative to vehicle (NZBWF1 mice [5]; [7]): significant improvement relative to vehicle
- Decrease of splenic pDC counts relative to vehicle (splenocytes): 47%
- Percent Reduction vs Vehicle: Activated CD4 + T cells (splenocytes): 89%
- Percent Reduction vs Vehicle: CD4 + T cells (splenocytes): 77%
- Percent Reduction vs Vehicle: CD8 + T cells (splenocytes): 48%
- Percent Reduction vs Vehicle: CD11b + Ly6C^hi monocytes (splenocytes): 25%
- Percent Reduction vs Vehicle: CD19 + B cells (splenocytes): 91%
- Percent Reduction vs Vehicle: Follicular B cells (splenocytes): 93%
- Percent Reduction vs Vehicle: Germinal Center B cells (splenocytes): 99%
- Percent Reduction vs Vehicle: Marginal Zone B cells (splenocytes): 57%
- Percent Reduction vs Vehicle: Marginal Zone Progenitor B cells (splenocytes): 78%
- Percent Reduction vs Vehicle: Naive CD4 + T cells (splenocytes): 45%
- Percent Reduction vs Vehicle: Plasma cells (splenocytes): 90%
- Percent Reduction vs Vehicle: Tfh cells (splenocytes): 97%
- Percent Reduction vs Vehicle: Total splenocytes (splenocytes): 73%
- Percent Reduction vs Vehicle: Treg cells (splenocytes): 80%
- Percent Reduction vs Vehicle: pDC (splenocytes): 64%
- Reduction in splenic CD4+ T cell population (splenocytes): 84%
- Reduction in splenic CD8+ T cell population (splenocytes): 46%
- Reduction in splenic CD19+ B cell population (splenocytes): 92%
- Reduction in splenic Follicular (FO) B cells (splenocytes): 96%
- Reduction in splenic Germinal Center (GC) B cell population (splenocytes): 99%
- Reduction in splenic Marginal Zone (MZ) B cell population (splenocytes): 74%
- Reduction in splenic activated CD4+ T cell population (splenocytes): 93%
- Reduction in splenic naïve CD4+ T cells (splenocytes): 47%
- Reduction in splenic plasma cell population (splenocytes): 18%
